From PubChem BioAssay (NCI)
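Dose response: 5 concentrations. Exposure: 48 h. Format: 96-well plates. Endpoint: linear interpolation; highest concentration if not reached. GI50 is the concentration that inhibits growth by half. TGI marks complete inhibition of growth.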

Assays:
Assay in all cases: growth of human tumour cells (NCI), 48 h
SK-OV-3 ovarian = system: SK-OV-3 ovarian
ACHN renal = system: ACHN renal
NCI/ADR-RES ovarian = system: NCI/ADR-RES ovarian
CCRF-CEM leukemia = system: CCRF-CEM leukemia
OVCAR-4 ovarian = system: OVCAR-4 ovarian
MCF7 breast = system: MCF7 breast
M14 melanoma = system: M14 melanoma
BT-549 breast = system: BT-549 breast
KM12 colon = system: KM12 colon
HCT-116 colon = system: HCT-116 colon

Structure (SMILES) | GI50 (SK-OV-3 ovarian) [µM] | TGI (SK-OV-3 ovarian) [µM] | GI50 (ACHN renal) [µM] | TGI (ACHN renal) [µM] | GI50 (NCI/ADR-RES ovarian) [µM] | TGI (NCI/ADR-RES ovarian) [µM] | GI50 (CCRF-CEM leukemia) [µM] | TGI (CCRF-CEM leukemia) [µM] | GI50 (OVCAR-4 ovarian) [µM] | TGI (OVCAR-4 ovarian) [µM] | GI50 (MCF7 breast) [µM] | TGI (MCF7 breast) [µM] | GI50 (M14 melanoma) [µM] | TGI (M14 melanoma) [µM] | GI50 (BT-549 breast) [µM] | TGI (BT-549 breast) [µM] | GI50 (KM12 colon) [µM] | TGI (KM12 colon) [µM] | GI50 (HCT-116 colon) [µM] | TGI (HCT-116 colon) [µM]
CC(=O)O.CC(=O)O.CC(=O)O.CC(=O)O.[Rh].[Rh] | > 100 | > 100 | 24.9 | > 100 | 30.2 | 92.2 | 5.1 | 20.3 | 37 | > 100 | 27.2 | > 100 | 27.8 | 82.5 | 29.5 | 90.3 | 34.8 | > 100 | 24.1 | 94.1
Cn1nnc2c(C(N)=O)ncn2c1=O |  | 100 |  | > 100 |  | > 100 |  | > 100 |  | > 100 |  | > 100 |  | > 100 |  | > 100 |  | > 100 |  | > 100
Oc1c(Cl)cc(Cl)c2cccnc12 | 3.71 | 16.2 | 3.78 | 40.5 | 3.3 | > 100 | 2.75 | > 100 | 2.32 | 7.85 | 3.75 | 13.8 | 1.96 | 5.26 | 4.12 | 52.7 | 4.58 | 16.7 | 2.97 | 10.1
OCc1ccc(N2CCCC2)cc1Cl | 27.3 | > 90.6 | 29.2 | > 75.3 | 34.9 | > 100 | 31.3 | > 100 | 1.83 | 12.3 | 1.95 | > 61.9 | > 100 | > 100 | 32 | > 100 | > 100 | > 100 | 1.6 | > 100
Nc1ncccc1-c1nc2ccc(-c3ccccc3)nc2n1-c1ccc(C2(N)CCC2)cc1 | 0.166 | 3.01 | 1.14 | 3.19 | 2.43 | 14.6 | 0.437 | 9.86 | 4.06 | 18.7 | 0.0465 | 1.68 | 1.4 | 2.96 | 0.344 | 5.14 | 1.78 | 6.93 | 1.43 | 2.91
O=c1c(O)cccn1CCCN(CCCn1cccc(O)c1=O)CCn1cccc(O)c1=O | 3.37 | > 100 | 7.15 | > 100 | > 100 | > 100 | 0.386 | 3.79 | 3.95 | > 100 | 3.89 | > 100 | 5.41 | 60.2 | 10.5 | > 100 | 3.12 | > 100 | 2.85 | > 100
CCN1C(=O)N(CC)C2C1NN=c1s/c(=C\c3ccc[nH]3)c(=O)n12 (configuration not stated) | 0.301 | > 100 | 0.538 | > 100 | 0.413 | > 100 | 0.402 | > 100 | 1.68 | > 100 | 0.273 | > 100 | 0.385 | > 100 | 0.834 | > 100 | 0.286 | > 45 | 0.453 | > 100
Brc1cccc(-c2cc(-c3ccc4nccnc4c3)[nH]n2)c1 | 0.845 | > 250 | 1.72 | > 250 | 0.318 | 34.3 | 0.864 | > 250 | 2.05 | > 250 | 0.413 | > 250 | 0.43 | > 250 | 2.15 | > 250 | 0.153 | > 94.7 | 0.603 | > 84.2
CCOC(=O)C1=C(C)N2C(=NC3=C(CCC/C3=C\c3ccc(Cl)cc3)C2c2ccc(Cl)cc2)S1 (configuration not stated) | 6.68 | > 100 | 3.64 | 33.6 | 2.56 | 7.04 | 2.59 | 7.87 | 2.85 | 19.2 | 2.44 | 11 |  |  | 1.53 | 3.52 | 1.93 | 3.68 | 1.4 | 2.7
COc1cc(C2CC(=O)Nc3c2cc(Br)c2ccccc32)cc(Br)c1OC (configuration not stated) | 1.76 | 3.35 |  |  | 0.398 | 2.63 | 2.01 | 21.5 | 0.349 | 1.44 | 0.642 | > 100 | 1.08 | > 100 | 3.47 | > 71 |  |  | 0.602 | 2.44
NC(=O)c1cccc(-c2cc(C(N)=O)ccc2Cl)c1 | 5.63 | > 100 | 6.46 | > 100 | 1.51 | 25.9 | 2.19 | > 100 | 9.21 | > 100 | 1.01 | > 100 |  |  | 6.82 | > 100 | 1.88 | > 100 | 2.35 | > 100
